According to patent US6680282B2 (priority 1997, dated 2004):

Key:
Pyricularia oryzae = assay: whole plant or invertebrate; assay type: in vivo; conditions: for rank (control effect, protective value from lesion number): 100 ppm spray, rice seedling (Jikkoku) 4-leaf stage, lesion number on fourth leaf 6 days after inoculation; for pest or weed control at 100 ppm: Pyricularia oryzae, foliar, 144 h, read-out: rank (control effect, protective value from lesion number)
Sphaerotheca fuliginea = assay: Test for control effect against powdery mildew of Cucurbitaceae (spray on cucumber seedlings); assay type: in vivo; conditions: 200 ppm spray, cucumber first foliage leaf, 10 days after inoculation
From the text: Test for Control Effect Against Powdery Mildew of Cucurbitaceae
A spray liquid comprising a test compound whose concentration was adjusted to be 200 ppm by dilution with water was sprayed to a cucumber grown in a vinyl pot of 3 cm in diameter when its first foliage leaf was developed. The air-dried cucumber seedling was inoculated with a conidium suspension of Sphaerotheca fuliginea. Thereafter, the cucumber seedling was transferred in an air-conditioned greenhouse. 10 Days after the inoculation, the disease severity was observed. The protective value was calculated by comparing the disease severity in a treated area with that in an untreated area. Then, control effect was ranked according to the following criterion.
B; protective value 50 to 79%

CCCCc1cc(Cl)c2nc(C)c(C)c(OC(C)=O)c2c1 [Compound No. 216]
rank (control effect, protective value from lesion number) (Pyricularia oryzae): A (protective value ≧80%)
rank (control effect, protective value from disease severity) (Sphaerotheca fuliginea): B (protective value 50 to 79%)

CC(=O)Oc1c(C)c(C)nc2c(Cl)cc(C(C)(C)C)cc12 [Compound No. 218]
rank (control effect, protective value from lesion number) (Pyricularia oryzae): A (protective value ≧80%)
rank (control effect, protective value from disease severity) (Sphaerotheca fuliginea): A (protective value ≧80%)

CCc1cc(CC)c2nc(C)c(C)c(OC(C)=O)c2c1 [Compound No. 268]
rank (control effect, protective value from lesion number) (Pyricularia oryzae): A (protective value ≧80%)
rank (control effect, protective value from disease severity) (Sphaerotheca fuliginea): B (protective value 50 to 79%)

CCC(C)c1cc(CO)c2nc(C)c(C)c(OC(C)=O)c2c1 (stereo not drawn) [Compound No. 340, 4-acetoxy-6-s-butyl-8-hydroxymethyl-2,3-dimethylquinoline]
pest or weed control at 100 ppm (Pyricularia oryzae): > 80%
rank (control effect, protective value from disease severity) (Sphaerotheca fuliginea): A (protective value ≧80%)

CCC(C)c1cc(CCl)c2nc(C)c(C)c(OC(C)=O)c2c1 (stereo not drawn) [Compound No. 344, 4-acetoxy-6-s-butyl-8-chloromethyl-2,3-dimethylquinoline]
pest or weed control at 100 ppm (Pyricularia oryzae): > 80%
rank (control effect, protective value from disease severity) (Sphaerotheca fuliginea): A (protective value ≧80%)

CCC(C)c1cc(C=O)c2nc(C)c(C)c(OC(C)=O)c2c1 (stereo not drawn) [Compound No. 356, 4-acetoxy-6-s-butyl-8-formyl-2,3-dimethylquinoline]
pest or weed control at 100 ppm (Pyricularia oryzae): > 80%
rank (control effect, protective value from disease severity) (Sphaerotheca fuliginea): A (protective value ≧80%)

CC(=O)Oc1c(C)c(C)nc2ccc(OC(C)C)cc12 [compound 24]
rank (control effect, protective value from lesion number) (Pyricularia oryzae): B (protective value 50 to 79%)
rank (control effect, protective value from disease severity) (Sphaerotheca fuliginea): A (protective value ≧80%)

CCCCc1ccc2nc(C)c(CCC)c(OC(C)=O)c2c1 [compound 45]
rank (control effect, protective value from lesion number) (Pyricularia oryzae): A (protective value ≧80%)
rank (control effect, protective value from disease severity) (Sphaerotheca fuliginea): B (protective value 50 to 79%)

CCC(C)c1ccc2nc(C)c(C)c(OC(C)=O)c2c1 (stereo not drawn) [compound 55]
rank (control effect, protective value from lesion number) (Pyricularia oryzae): A (protective value ≧80%)
rank (control effect, protective value from disease severity) (Sphaerotheca fuliginea): A (protective value ≧80%)

CCC(=O)Oc1c(C)c(C)nc2ccc(C(C)CC)cc12 (stereo not drawn) [compound 56]
rank (control effect, protective value from lesion number) (Pyricularia oryzae): A (protective value ≧80%)
rank (control effect, protective value from disease severity) (Sphaerotheca fuliginea): A (protective value ≧80%)

CCC(C)c1ccc2nc(C)c(C)c(OC(=O)c3ccccc3)c2c1 (stereo not drawn) [compound 61]
rank (control effect, protective value from lesion number) (Pyricularia oryzae): A (protective value ≧80%)
rank (control effect, protective value from disease severity) (Sphaerotheca fuliginea): B (protective value 50 to 79%)

CCC(C)c1ccc2nc(C)c(C)c(OC(=O)OC)c2c1 (stereo not drawn) [compound 65]
rank (control effect, protective value from lesion number) (Pyricularia oryzae): A (protective value ≧80%)
rank (control effect, protective value from disease severity) (Sphaerotheca fuliginea): A (protective value ≧80%)

CCOC(=O)Oc1c(C)c(C)nc2ccc(C(C)CC)cc12 (stereo not drawn) [compound 66]
rank (control effect, protective value from lesion number) (Pyricularia oryzae): A (protective value ≧80%)
rank (control effect, protective value from disease severity) (Sphaerotheca fuliginea): A (protective value ≧80%)

CCCCCCCCOC(=O)Oc1c(C)c(C)nc2ccc(C(C)CC)cc12 (stereo not drawn) [compound 67]
rank (control effect, protective value from lesion number) (Pyricularia oryzae): A (protective value ≧80%)
rank (control effect, protective value from disease severity) (Sphaerotheca fuliginea): A (protective value ≧80%)

CCC(C)c1ccc2nc(C)c(C)c(OC(=O)Oc3ccccc3)c2c1 (stereo not drawn) [compound 68]
rank (control effect, protective value from lesion number) (Pyricularia oryzae): A (protective value ≧80%)
rank (control effect, protective value from disease severity) (Sphaerotheca fuliginea): A (protective value ≧80%)

CCC(C)c1ccc2nc(C)c(C)c(OC(=O)N(CC)CC)c2c1 (stereo not drawn) [compound 72]
rank (control effect, protective value from lesion number) (Pyricularia oryzae): B (protective value 50 to 79%)
rank (control effect, protective value from disease severity) (Sphaerotheca fuliginea): A (protective value ≧80%)

CC(=O)Oc1c(C)c(C)nc2ccc(CC(C)C)cc12 [compound 93]
rank (control effect, protective value from lesion number) (Pyricularia oryzae): A (protective value ≧80%)
rank (control effect, protective value from disease severity) (Sphaerotheca fuliginea): A (protective value ≧80%)

CC(=O)Oc1c(C)c(C)nc2ccc(Br)cc12 [compound 185]
rank (control effect, protective value from lesion number) (Pyricularia oryzae): B (protective value 50 to 79%)
rank (control effect, protective value from disease severity) (Sphaerotheca fuliginea): A (protective value ≧80%)
